Read-outs that look alike come from different tables or passages of the source.

What all share (assay type): cell-based
Assay [1] concerns Panc-1 Human pancreatic carcinoma cell-line. Nature of the assay: XTT cytotoxicity, Panc-1 pancreatic carcinoma cells. The settings on record: Panc-1, XTT, 72 hr. How it is done:
The piperazine-derivatives were prepared as a stock of 50 mM in 100% DMSO (dimethyl sulfoxide). […] Each experimental point was performed in triplicates. Vehicle (DMSO)-treated cells were used as control. Dilutions were performed in culture medium and DMSO so that the final concentration of DMSO in each well was 0.5%.
(§1) Optical density representing viable cells was determined using the XTT Cell Proliferation Kit assay (sodium 2,3,-bis(2-methoxy-4-nitro-5-sulfophenyl)-5-[(phenylamino)-carbonyl]-2H-tetrazolium inner salt, Biological industries, Beit-Haemek, Israel).
(§2) Percentage of Optical density is directly proportional to the number of living cells in culture. Cytotoxicity (%) was calculated in the following way: [(OD of drug-treated cells-OD of background)/(OD of control cells-OD of background)]×100.
(§3) New piperazine derivatives were tested for cytotoxicity in 4 cancer cell lines:
D) Panc-1—Human pancreatic carcinoma cell-line
For orientation: Tetrazolium dyes change colour on reduction, which living cells bring about.

Assay [2] has as its system PC3 prostate cancer line. Nature of the assay: Cytotoxicity, PC3 prostate cancer cells. The settings on record: 25 mM glucose, 1500 cell/well, 10% FCS, 72 hours, read-out: IC50 (μM), prostate cancer cell line (Table 4).
For assay [3], the system named is HCT116 Human colon carcinoma cell-line. Nature of the assay: XTT cytotoxicity, HCT116 colon carcinoma cells. The settings on record: HCT-116, 72 hr. How it is done:
(§4) The piperazine-derivatives were prepared as a stock of 50 mM in 100% DMSO (dimethyl sulfoxide). Piperazine-derivatives were added at concentration ranging from 0.03-10 uM for 72 hours. Each experimental point was performed in triplicates. Vehicle (DMSO)-treated cells were used as control. Dilutions were performed in culture medium and DMSO so that the final concentration of DMSO in each well was 0.5%.
as §1, §2, §3
A) HCT116—Human colon carcinoma cell-line

Assay [4] relates to Hela Human cervix adenocarcinoma cell-line. Nature of the assay: XTT cytotoxicity, Hela cervix adenocarcinoma cells. Conditions: 72 hr. The method, then: as §4, §1, §2, §3
B) Hela—Human cervix adenocarcinoma cell-line

For assay [5], the system named is H358 Human lung carcinoma cell-line. Nature of the assay: XTT cytotoxicity, H358 lung carcinoma cells. The method, then: as §4, §1, §2, §3
C) H358—Human lung carcinoma cell-line
New piperazine derivatives (compounds of Formula (IV)) were tested for cytotoxicity in the H358 human lung carcinoma cell line. Table 2 below provides IC50 values for the tested compounds.
New piperazine derivatives (compounds of Formula (V)) were tested for cytotoxicity in the H358 human lung carcinoma cell line. Table 3 below provide IC50 values for the tested compounds.

The mark [6] stands for this setting: NCI-H358, H358, XTT, 72 hr (Table 1), read-out: IC50 (XTT, 72 hr) Lung H358.
Where [7] appears, read: NCI-H358, H358 lung cancer line, 11.5 mM glucose, 5000 cell/well, 0.5% FCS, 72 hours, read-out: IC50 (μM), lung cancer cell line (Table 2).
[8] abbreviates: NCI-H358, H358 lung cancer line, 11.5 mM glucose, 5000 cell/well, 0.5% FCS, 72 hours, read-out: IC50 (μM), lung cancer cell line (Table 3).

The IC50 is the point on the concentration scale where inhibition reaches its midpoint. Consider `O=C(N1CCN(c2ccccc2)CC1)N1c2ccccc2Oc2ccccc21` [Compound 1], for which the IC50 in assay [1] was 0.01 µM; in assay [2] it was 0.026 µM; in assay [3], 0.01 µM; in assay [4], 0.015 µM; in assay [5] (setting [6]) it was 0.05 µM; in assay [5] (setting [7]), 0.025 µM.
For the compound `O=C(N1CCN(c2c(F)c(F)c(F)c(F)c2F)CC1)N1c2ccccc2Oc2ccccc21` [Compound 2], the half-maximal inhibitory concentration (IC50) in assay [1] is > 30 µM; in assay [4] it was 1.9 µM; in assay [5] (setting [7]), > 10 µM.
With `O=C(C1c2ccccc2Sc2ccccc21)N1CCN(c2ccccc2)CC1` [Compound 3], the IC50 in assay [1] is 0.31 µM; in assay [3], 0.64 µM; in assay [4], 0.5 µM; in assay [5] (setting [6]) it was 1.35 µM; in assay [5] (setting [7]), 0.43 µM.
Take `O=C(N1CCN(c2c(F)cccc2F)CC1)N1c2ccccc2Oc2ccccc21` [Compound 5]: the 50% inhibitory concentration (IC50) came out at 0.9 µM in assay [1]; 1.08 µM in assay [3]; 0.4 µM in assay [4]; 0.84 µM in assay [5] (setting [6]); 0.265 µM in assay [5] (setting [7]).
Regarding `COc1cccc(N2CCN(C(=O)N3c4ccccc4Oc4ccccc43)CC2)c1` [Compound 11], the IC50 in assay [5] (setting [7]) came out at 0.0047 µM.
Turning to `COc1ccccc1N1CCN(C(=O)N2c3ccccc3Oc3ccccc32)CC1` [Compound 12], the IC50 in assay [5] (setting [7]) was found to be 0.0066 µM.
Same read-out and setting: the figure for `O=C(N1CCN(c2cc(F)cc(F)c2)CC1)N1c2ccccc2Oc2ccccc21` [Compound 13] is 0.0067 µM; for `O=C(N1CCN(c2ccc(O)cc2)CC1)N1c2ccccc2Oc2ccccc21` [Compound 14] it is 0.051 µM.
Same read-out and setting: the figure for `O=C(N1CCN(c2ccc(F)cc2)CC1)N1c2ccccc2Oc2ccccc21` [Compound 15] is 0.24 µM; for `O=C(N1CCC(c2ccccc2)CC1)N1c2ccccc2Oc2ccccc21` [Compound 16] it is 1.37 µM.
As to `O=C(N1CCN(c2ccccc2)CC1)n1c2ccccc2c2ccccc21` [Compound 20], the IC50 in assay [5] (setting [8]) is 0.027 µM.
Turning to `O=C(N1CCN(c2cc(F)cc(F)c2)CC1)n1c2ccccc2c2ccccc21` [Compound 23], the IC50 in assay [2] was 0.08 µM; in assay [5] (setting [8]), 0.009 µM.

(Values after US11084807B2, “Piperazine derivatives, pharmaceutical compositions and methods of use thereof” (Vidac Pharma Ltd., priority 2016, dated 2021).)
